{"source": "patent US11090292B2", "about": "“Compositions and methods of use of an inappetance-controlling compound” (Aratana Therapeutics, Inc., priority 2012, dated 2021)", "key": {"[1]": {"tested_on": "insulin-like growth factor 1 (IGF-1)", "experiment": "Example 1: serum IGF-1 concentration", "type": "in vivo, Beagle dogs", "method": "(§1) A controlled, seven-day study was performed to assess the impact of different capromorelin-dosing regimens on the production of insulin-like growth factor 1 (hereinafter “IGF-1”), growth hormone (hereinafter “GH”), and cortisol. The different capromorelin-dosing regimens were also assessed for the impact on food intake and changes in body mass.\n(§2) Eighteen adult non-naïve Beagle dogs (nine males and nine females) were divided into one of three treatment groups. Each of the three treatment groups included three males and three females. Group A, which was the control group, was dosed twice per day, via oral gavage, with a vehicle (deionized water alone) and was used as a baseline data point for comparison against the active treatment regimens. Group B comprised an active treatment group that received two treatments per day, via oral gavage, with a capromorelin-containing composition with a concentration of 3 mg/kg capromorelin per treatment. Finally, Group C comprised an active treatment group that received one treatment per day, via oral gavage, with a capromorelin-containing composition with a concentration of 6 mg/kg capromorelin per treatment.\n(§3) During the ten day study period, on an at least once-daily basis, each of the dogs was monitored for clinical observations, mortality, morbidity, body mass, and food consumption. […]"}, "growth hormone (GH)": {"tested_on": "growth hormone (GH)", "experiment": "Example 1: serum GH concentration", "type": "in vivo, Beagle dogs", "details": "once-daily 6 mg/kg or twice-daily 3 mg/kg, approximately 0.5 h after dosing, days 1, 2, 4, 7", "method": "as §1, §2, §3"}, "[2]": {"experiment": "Example 4 seven-day study once vs twice daily 3 mg/kg: food consumption and body weight", "type": "in vivo, Beagle dogs", "method": "(§4) A controlled, seven-day study was performed to assess the impact of different capromorelin-dosing regimens on the production of IGF-1, GH, and cortisol. The different capromorelin-dosing regimens were also assessed for the impact on food intake and changes in body mass.\n(§5) […] were divided into one of three treatment groups, with one negative control group and two active treatment groups. Each of the three treatment groups included three males and three females. The first group received a placebo formulation (i.e., deionized water) twice per day, via oral gavage. The second group received a once-daily dose of the capromorelin composition at a concentration of 3 mg/kg, via oral gavage. The third group received a twice-daily dose of the capromorelin composition at a concentration of 3 mg/kg, via oral gavage.\n(§6) During the ten day study period, on an at least once-daily basis, each of the dogs was monitored for clinical observations, mortality, moribundity, body mass, acceptability/palatability, and food consumption. Serum samples were taken to measure capromorelin concentration, GH concentration, IGF-1 concentration, and cortisol concentration. Serum samples were taken on days 1, 2, 4, and 7 at −15 minutes (pre-dose), immediately prior to dosing (0 minutes) and 30, 45, 60, 90, 120, 240, 360, and/or 480 minutes post dosing. […]"}, "IGF-1": {"tested_on": "IGF-1", "experiment": "Example 4: serum IGF-1 concentration", "type": "in vivo, Beagle dogs", "method": "as §4, §5\nDuring the ten day study period, on an at least once-daily basis, each of the dogs was monitored for clinical observations, mortality, moribundity, body mass, acceptability/palatability, and food consumption. Serum samples were taken to measure capromorelin concentration, GH concentration, IGF-1 concentration, and cortisol concentration. Serum samples were taken on days 1, 2, 4, and 7 at −15 minutes (pre-dose), immediately prior to dosing (0 minutes) and 30, 45, 60, 90, 120, 240, 360, and/or 480 minutes post dosing. Additional serum samples were taken at 8 AM on Day 10 of the study to assess long-term impact of the active treatments."}, "GH": {"tested_on": "GH", "experiment": "Example 4: serum GH concentration", "type": "in vivo, Beagle dogs", "details": "once-daily or twice-daily 3 mg/kg, approximately 0.5 h, days 1, 4, 7", "method": "as §4, §5, §6"}, "cortisol": {"tested_on": "cortisol", "experiment": "Example 9: serum cortisol concentration", "type": "in vivo, cats", "details": "day 4", "method": "A four-day study was performed to further assess the pharmacokinetics of formulation 8 from Example 3 (i.e., the most “well-accepted” formulation) in cats. Moreover, the administration of formulation 8 was also analyzed to determine if administration of this formulation could induce sustained production of IGF-1 and relatively depressed, mitigated, or lower levels of cortisol. The different capromorelin-dosing regimens were also assessed for the impact on food intake and changes in body mass.\nTwenty-four adult cats were divided into one of four treatment groups, with all four groups as active treatment groups. Each of the active treatment groups included 6 cats. The first group received a sterile injection of a capromorelin composition containing a 0.75 mg/kg concentration of capromorelin once per day during the four-day experiment. The second group received a once-daily sterile injection of a capromorelin composition at a concentration of 2 mg/kg. The third group received a once-daily dose of a capromorelin composition at a concentration of 2 mg/kg, via oral gavage. […]\nDuring the seven day study period, on an at least once-daily basis, each of the cats was monitored for clinical observations, mortality, moribundity, body mass, acceptability/palatability, and food consumption. […]"}, "[3]": {"experiment": "Example 12: food consumption", "type": "in vivo, cats", "details": "IV 0.75 mg/kg or oral 3 mg/kg, short treatment", "method": "Similar to some of the other pharmacokinetic analyses conducted in dogs and cats, an additional pharmacokinetic study was conducted in cats to assess capromorelin formulations that allow sufficient drug to circulate to produce appetite stimulation and to define the capromorelin pharmacokinetic profile in cats. Briefly, twelve cats were randomized into Group 1 (six cats) and Group 2 (six cats). Group 1 received an intravenous formulation that included 0.75 mg/kg of capromorelin dissolved in sterile water and Group 2 received a previously tested formulation via oral gavage. Food consumption was determined daily for all cats. Specifically, animals were offered feed at approximately 11:00 AM, with the removal of feed at approximately 3:00 PM. Upon removal of feed, the amount consumed was calculated."}}, "data": [{"smiles": "CN1N=C2CCN(C(=O)[C@@H](COCc3ccccc3)NC(=O)C(C)(C)N)C[C@@]2(Cc2ccccc2)C1=O.O=C(O)C(O)C(O)C(=O)O", "note": "[capromorelin]", "values": [{"measurement": "serum IGF-1 levels versus deionized water three days after terminating treatment", "setting": "[1]; Day 10", "value": "not significantly different"}, {"measurement": "serum IGF-1 levels relative to deionized water", "setting": "[1]; days 2, 4 and 7 of treatment, both doses", "value": "remained consistently higher"}, {"measurement": "GH levels in the serum after dosing", "setting": "growth hormone (GH)", "value": "marked increase"}, {"measurement": "weight loss over the course of the experiment", "setting": "[2]; once-daily 3 mg/kg oral gavage", "value": "did not experience weight loss or did not experience as great a weight loss as the negative control"}, {"measurement": "average more food consumed daily relative to the negative control", "setting": "[2]; once-daily and twice-daily 3 mg/kg oral gavage, 7 days", "value": "approximately 34%"}, {"measurement": "serum IGF-1 levels versus deionized water three days after terminating treatment", "setting": "IGF-1; Day 10", "value": "not significantly different"}, {"measurement": "increase in serum IGF-1 concentration at eight hours post administration relative to time 0", "setting": "IGF-1; once-daily 3 mg/kg, day 1", "value": "approximately 83.9%"}, {"measurement": "increase in serum IGF-1 concentration at eight hours post administration relative to time 0", "setting": "IGF-1; once-daily 3 mg/kg, day 4", "value": "approximately 39.5%"}, {"measurement": "increase in serum IGF-1 concentration at eight hours post administration relative to time 0", "setting": "IGF-1; once-daily 3 mg/kg, day 7", "value": "~36.8", "unit": "%"}, {"measurement": "increase in serum IGF-1 concentration at eight hours post administration relative to time 0", "setting": "IGF-1; twice-daily 3 mg/kg, day 1", "value": "approximately 50.6%"}, {"measurement": "increase in serum IGF-1 concentration at eight hours post administration relative to time 0", "setting": "IGF-1; twice-daily 3 mg/kg, day 4", "value": "approximately 15.4%"}, {"measurement": "increase in serum IGF-1 concentration at eight hours post administration relative to time 0", "setting": "IGF-1; twice-daily 3 mg/kg, day 7", "value": "~13.3", "unit": "%"}, {"measurement": "GH levels in the serum after dosing", "setting": "GH", "value": "marked increase"}, {"measurement": "increases in cortisol serum levels relative to day 1", "setting": "cortisol", "value": "mitigated on day 4"}, {"measurement": "observed food consumption", "setting": "[3]", "value": "did not reveal any significant increases in food consumption"}]}]}
